Data published in patent publication US8624035B2, “Functionalized cyanine having a silane linker arm, a method of preparing thereof and uses thereof” (Universita' Degli Studi di Torino, priority 2008, dated 2014).

Assay: Photodegradation over time under excitation with laser light at 532 nm
Format: physicochemical
Conditions: after 350 minutes, FIG. 3
Method: The emission of nanoparticles is 15-folds higher than the emission of the solution. Moreover, the photodegradation of fluorescent nanoparticles over time was compared to the photodegradation of the cyanine in solution. […] It observed that the cyanine immobilized within the nanoparticle undergoes a 5% photodegradation after 350 minutes, whilst the cyanine dye in solution undergoes a 45% photodegradation within the same time.

**Q.** With `CO[Si](CCCN1/C(=C/C=C/C2=[N+](CCC[Si](OC)(OC)OC)c3ccc(S(=O)(=O)[O-])cc3C2(C)C)C(C)(C)c2cc(S(=O)(=O)[O-])ccc21)(OC)OC.[K+]` [Compound 1, 1-propyltrimethoxysilane-1′-propyltrimethoxysilane-3,3,3,3′-tetramethyl-5,5′-disulfonate-indomonocarbocyanine potassium salt] as the compound, how does the “photodegradation (percentage of emission compared to time zero)” value read?
**A.** 45%
